Laboratory results reported in patent US11918582B2 (RAPT Therapeutics, Inc., priority 2021, dated 2024).
Counter-ions that a name gives are not always drawn.

Biological target: T1, human HPK1 (MAP4K1) (Homo sapiens, UniProt Q92918)
T1 construct: Recombinant human HPK1 kinase domain was obtained from ThermoFisher (Cat. #PV6357) and SignalChem (Cat. #M23-11G); purchased ThermoFisher; SignalChem PV6357; M23-11G
T1 sequence (Q92918 17-274 limits assumed): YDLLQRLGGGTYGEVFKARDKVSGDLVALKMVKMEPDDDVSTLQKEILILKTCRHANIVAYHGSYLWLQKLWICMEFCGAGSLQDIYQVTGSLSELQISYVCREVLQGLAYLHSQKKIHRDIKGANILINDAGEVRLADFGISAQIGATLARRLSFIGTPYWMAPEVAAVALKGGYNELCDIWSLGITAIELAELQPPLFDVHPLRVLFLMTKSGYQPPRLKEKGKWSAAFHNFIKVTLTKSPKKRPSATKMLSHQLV
Experiment: Biochemical assay for activity against HPK1 (ADP-Glo, MBP substrate)
Conditions: recombinant human HPK1 kinase domain, 1 nM enzyme, ADP-Glo luminescence
Excerpt: These compounds are made by the synthetic methods described earlier herein. Example 227 Biochemical Assay for Testing Compounds for Activity against HPK1
The enzymatic activity of human HPK1 (MAP4K1) was monitored in a biochemical assay in the presence or absence of compounds, using a peptide substrate (myelin basic protein, MBP), with an ADP-Glo assay kit (Promega, Cat. #V9103). An increase in phosphorylation of the peptide by HPK1 was indicative of its kinase activity.
Recombinant human HPK1 kinase domain was obtained from ThermoFisher (Cat. #PV6357) and SignalChem (Cat. #M23-11G). A 1 nM HPK1 kinase enzyme solution was prepared from the HPK1 stock received from the commercial supplier using an assay buffer containing 50 mM HEPES (4-(2-hydroxyethyl)-1-piperazineethanesulfonic acid) pH 7.5 (Fisher Scientific, Cat. #H1035), 150 mM NaCl (Fisher Scientific, Cat. #50843067), 3 mM TCEP-HCl (Tris(2-carboxyethyl)phosphine hydrochloride; Fisher Scientific, Cat. #PIPG82080), 10 mM MgCl2 (Fisher Scientific, Cat. #AM9530G), 0.005% Tween-20 (Fisher Scientific, Cat. #BP337500) and 0.01% BSA (bovine serum albumin; ThermoFisher, Cat. #15260037), in ultra-pure water. The final concentration of the assay buffer was 770 nM. A 5 mM stock solution of the peptide substrate was prepared using […] MBP (Myelin Basic Protein, Active Motif, Cat. #31314), 10 mM ATP (adenosine 5′-triphosphate; Sigma-Aldrich, Cat. #GE27-2056-01) and of assay buffer.
Test compounds were dissolved in DMSO (dimethyl sulfoxide) at 10 mM and then serial dilutions were prepared using a ViaFlow assist multichannel dispenser (Integra ViaFlo). 20 nL of test compounds at various concentrations were dispensed into a 1536-well assay plate (Corning Cat. #7247) using an Echo Nanoliter dispenser (Labcyte ECHO 550). […] of a 1 nM solution of HPK1 kinase enzyme diluted in assay buffer was added to the compound-containing plate using a Mantis Microliter dispenser (Formulatrix Mantis), covered with a lid, and incubated for 15 minutes at room temperature. 50 nL of a 5 mM stock solution of the peptide substrate (MBP) were added using the Echo Nanoliter dispenser. The plate was covered with a lid, centrifugated at 500 rpm for 1 minute and incubated for 2 hours at room temperature. […] of ADP-Glo reagent A was added using the Mantis Microliter dispenser, centrifugated at 500 rpm for 30 seconds and incubated for 40 minutes at room temperature. […] of ADP-Glo reagent B was added using the Mantis Microliter dispenser, centrifugated at 500 rpm for 30 seconds and incubated for 30 minutes at room temperature. Peptide phosphorylation was measured by luminescence on an Envision plate reader (PerkinElmer).
The HPK1 biochemical IC50 activity levels of the compounds of Examples 1-225 were tested using this assay and are shown in Table 2.

Compound	IC50
COc1cc2c(cc1Nc1ncc3cnn(C[C@@H]4C[C@@H](O)CN4C(C)=O)c3n1)CN(C)CC2 [Example 130, 1-((2S,4R)-4-hydroxy-2-((6-((6-methoxy-2-methyl-1,2,3,4-tetrahydroisoquinolin-7-yl)amino)-1H-pyrazolo[3,4-d]pyrimidin-1-yl)methyl)pyrrolidin-1-yl)ethan-1-one trifluoroacetate]	< 100 nM
Cc1nn(C2COC2)c2nc(Nc3ccc4c(c3)CN(C)CC4)ncc12 [Example 2, 2-methyl-N-[3-methyl-1-(oxetan-3-yl)pyrazolo[3,4-d]pyrimidin-6-yl]-3,4-dihydro-1H-isoquinolin-7-amine]	< 100 nM
COc1cc2c(cc1Nc1ncc3cnn(C[C@@H]4CCCN4C(C)=O)c3n1)[C@@H](C)N(C)CC2 [Example 184, 1-((S)-2-((6-(((R)-6-methoxy-1,2-dimethyl-1,2,3,4-tetrahydroisoquinolin-7-yl)amino)-1H-pyrazolo[3,4-d]pyrimidin-1-yl)methyl)pyrrolidin-1-yl)ethan-1-one]	< 100 nM
COc1cc2c(cc1Nc1ncc3c(C)nn(C4COC4)c3n1)CN(C)CC2 [Example 3, 6-methoxy-2-methyl-N-[3-methyl-1-(oxetan-3-yl)pyrazolo[3,4-d]pyrimidin-6-yl]-3,4-dihydro-1H-isoquinolin-7-amine]	< 100 nM
COc1cc2c(cc1Nc1ncc3cnn([C@H]4CCC[C@@H](O)C4)c3n1)CN(C)CC2 (relative stereo) [Example 23, cis-3-(6-((6-methoxy-2-methyl-1,2,3,4-tetrahydroisoquinolin-7-yl)amino)-1H-pyrazolo[3,4-d]pyrimidin-1-yl)cyclohexan-1-ol]	< 100 nM
COc1cc2c(cc1Nc1ncc3cnn([C@H]4C[C@@H](CO)C4)c3n1)CN(C)CC2 [Example 66, cis-[3-[6-[(6-methoxy-2-methyl-3,4-dihydro-1H-isoquinolin-7-yl)amino]pyrazolo[3,4-d]pyrimidin-1-yl]cyclobutyl]methanol]	< 100 nM
COc1cc2c(cc1Nc1ncc3cnn(C[C@H]4C[C@H]4C)c3n1)CN(C)CC2 (racemic) [Example 202, 6-methoxy-2-methyl-N-(1-((cis-2-methylcyclopropyl)methyl)-1H-pyrazolo[3,4-d]pyrimidin-6-yl)-1,2,3,4-tetrahydroisoquinolin-7-amine, Trifluoroacetate Salt]	< 100 nM
COc1cc2c(cc1Nc1ncc3cnn(CC4(C)CC4)c3n1)CN(C)CC2 [Example 203, 6-methoxy-2-methyl-N-(1-((1-methylcyclopropyl)methyl)-1H-pyrazolo[3,4-d]pyrimidin-6-yl)-1,2,3,4-tetrahydroisoquinolin-7-amine]	< 100 nM
COC(C)(C)CCn1ncc2cnc(Nc3ccc4c(c3)CN(C)CC4)nc21 [Example 11, N-(1-(3-methoxy-3-methylbutyl)-1H-pyrazolo[3,4-d]pyrimidin-6-yl)-2-methyl-1,2,3,4-tetrahydroisoquinolin-7-amine]	< 100 nM
COc1cc2c(cc1Nc1ncc3cnn(CCC(C)(C)O)c3n1)CN(C)CC2 [Example 85, 4-[6-[(6-methoxy-2-methyl-3,4-dihydro-1H-isoquinolin-7-yl)amino]pyrazolo[3,4-d]pyrimidin-1-yl]-2-methyl-butan-2-ol]	< 100 nM
COc1cc2c(cc1Nc1ncc3cnn(C[C@@H]4CCCN4S(C)(=O)=O)c3n1)CN(C)CC2 [Example 111, (S)-6-methoxy-2-methyl-N-(1-((1-(methylsulfonyl)228yrrolidine-2-yl)methyl)-1H-pyrazolo[3,4-d]pyrimidin-6-yl)-1,2,3,4-tetrahydroisoquinolin-7-amine]	< 100 nM
CN1CCc2ccc(Nc3ncc4cnn(C5CCOCC5)c4n3)cc2C1 [Example 12, 2-methyl-N-(1-(tetrahydro-2H-pyran-4-yl)-1H-pyrazolo[3,4-d]pyrimidin-6-yl)-1,2,3,4-tetrahydroisoquinolin-7-amine]	< 100 nM
COc1cc2c(cc1Nc1ncc3cnn(C[C@H]4CCCN(C(C)=O)C4)c3n1)CN(C)CC2 [Example 142, I-[(3S)-3-[[6-[(6-methoxy-2-methyl-3,4-dihydro-1H-isoquinolin-7-yl)amino]pyrazolo[3,4-d]pyrimidin-1-yl]methyl]-1-piperidyl]ethan-1-one]	< 100 nM
COc1cc2c(cc1Nc1ncc3cnn([C@H]4C[C@@H](CNC(C)=O)C4)c3n1)CN(C)CC2 [Example 126, N-((cis-3-(6-((6-methoxy-2-methyl-1,2,3,4-tetrahydroisoquinolin-7-yl)amino)-1H-pyrazolo[3,4-d]pyrimidin-1-yl)cyclobutyl)methyl)acetamide]	100 to 250 nM

Next, values leading:

IC50	Compound
< 100 nM	COc1cc2c(cc1Nc1ncc3cnn(C[C@H]4C[C@@H](NS(C)(=O)=O)C4)c3n1)CN(C)CC2 [Example 120, cis N-(3-((6-((6-methoxy-2-methyl-1,2,3,4-tetrahydroisoquinolin-7-yl)amino)-1H-pyrazolo[3,4-d]pyrimidin-1-yl)methyl)cyclobutyl)methanesulfonamide trifluoroacetate]
< 100 nM	COc1cc2c(cc1Nc1ncc3cnn([C@H]4CC[C@H](O)CC4)c3n1)CN(C)CC2 [Example 49, trans-4-(6-((6-methoxy-2-methyl-1,2,3,4-tetrahydroisoquinolin-7-yl)amino)-1H-pyrazolo[3,4-d]pyrimidin-1-yl)cyclohexan-1-ol]
< 100 nM	COc1cc2c(cc1Nc1ncc3cnn([C@@H]4CC[C@H](CO)C4)c3n1)CN(C)CC2 (relative stereo) [Example 24]
< 100 nM	COc1cc2c(cc1Nc1ncc3cnn(CC4CCCNC4=O)c3n1)CN(C)CC2 (centres unmarked) [Example 218, 3-[[6-[(6-methoxy-2-methyl-3,4-dihydro-1H-isoquinolin-7-yl)amino]pyrazolo[3,4-d]pyrimidin-1-yl]methyl]piperidin-2-one]
< 100 nM	COc1cc2c(cc1Nc1ncc3cnn(C4CCN(C(C)=O)CC4)c3n1)CN(C)CC2 [Example 106, 1-(4-(6-((6-methoxy-2-methyl-1,2,3,4-tetrahydroisoquinolin-7-yl)amino)-1H-pyrazolo[3,4-d]pyrimidin-1-yl)piperidin-1-yl)ethan-1-one trifluoroacetate]
< 100 nM	CC(CO)n1ncc2cnc(Nc3ccc4c(c3)CN(C)CC4)nc21 (centres unmarked) [Example 10, 2-[6-[(2-methyl-3,4-dihydro-1H-isoquinolin-7-yl)amino]pyrazolo[3,4-d]pyrimidin-1-yl]propan-1-ol trifluoroacetate]
< 100 nM	COc1cc2c(cc1Nc1ncc3cnn(C[C@@H]4[C@@H](F)CCN4C(C)=O)c3n1)CN(C)CC2 [Example 213, 1-[(2R,3S)-3-fluoro-2-[[6-[(6-methoxy-2-methyl-3,4-dihydro-1H-isoquinolin-7-yl)amino]pyrazolo[3,4-d]pyrimidin-1-yl]methyl]pyrrolidin-1-yl]ethanone]
< 100 nM	CC(=O)N1CCC[C@H]1Cn1ncc2cnc(Nc3cc4c(cc3C)CCN(C)C4)nc21 [Example 183, (S)-1-(2-((6-((2,6-dimethyl-1,2,3,4-tetrahydroisoquinolin-7-yl)amino)-1H-pyrazolo[3,4-d]pyrimidin-1-yl)methyl)pyrrolidin-1-yl)ethan-1-one]
100 to 250 nM	COc1cc2c(cc1Nc1ncc3cnn(C[C@@H]4C[C@H](C(F)(F)F)CN4C(C)=O)c3n1)CN(C)CC2 [Example 144, 1-[(2S,4S)-2-[[6-[(6-methoxy-2-methyl-3,4-dihydro-1H-isoquinolin-7-yl)amino]pyrazolo[3,4-d]pyrimidin-1-yl]methyl]-4-(trifluoromethyl)pyrrolidin-1-yl]ethan-1-one]
